Converted amounts (≈) assume the structure as drawn. Positions of bridges follow the written chain, without caps; N, C: chain ends. Residues, ends and D or L forms follow the SMILES beside them.
Tests used:
[1] = RP-HPLC retention time as measure of hydrophobicity; type: physicochemical; conditions: chromatographic, semipreparative RP-HPLC, C18 column, linear gradient 5 to 80% (v/v) acetonitrile in water with 0.1% TFA within 50 minutes; used as measure of hydrophobicity
Protocol: Table S1. Characteristics of the recombinant AMPs.
1 Mean Kyte–Doolittle hydrophobicity index (GRAVY) was calculated using the Expasy ProtParam tool. The maximum and minimum values of this index are +4.5 and -4.5 for poly-Ile and poly-Arg sequences, respectively. 2 Retention times were measured using semipreparative reversed-phase high-performance liquid chromatography (RP - HPLC) on a C18 column with a linear gradient from 5 to 80% ( v/v) acetonitrile in water containing 0.1% trifluoroacetic […]
acid (TFA) within 50 minutes. […]

Gram-positive bacteria = type: cell-based; conditions: 24 h
Protocol: (§1) The antimicrobial activity of the peptides was determined via the method of two-fold serial dilutions in sterile 96-well flat-bottom polystyrene microplates (Eppendorf #0030730011) in Mueller–Hinton broth (MHB, Sigma, Kawasaki, Kanagawa, Japan) supplemented with 0.9% NaCl. Bacterial cultures were grown in MHB at 37 °C until the culture reached an optical density OD600 of 1.0 and diluted with the broth so that to reach a final cell concentration of 10^6 CFU/mL. Then 50 μL of the test culture were added to 50 μL of aqueous solutions of the peptides, previously diluted in 0.1% sterilized bovine serum albumin (BSA) to reduce non-specific binding of the peptides to the surface of the plates. Next, the plate was incubated for 24 h at 37 °C and 950 rpm on the plate thermoshaker (Biosan). The values of the minimum inhibitory concentrations (MIC) were determined as the minimum concentration of the peptide, at which there is no culture growth. The results were expressed as the median values of three independent experiments performed in triplicate.

Gram-negative bacteria = assay: Geometric mean of MICs, Gram-negative panel; type: cell-based; conditions: geometric mean (GM) of MICs against the 14 Gram-negative strains of Figure 2
Protocol: as §1

Compound: CC[C@H](C)[C@@H]1NC(=O)[C@H](CCCNC(=N)N)NC(=O)[C@H](C)NC(=O)CNC(=O)[C@H](CC(N)=O)NC(=O)[C@H](CCCNC(=N)N)NC(=O)[C@H](CC(C)C)NC(=O)[C@H](Cc2ccc(O)cc2)NC(=O)[C@@H]2CSSC[C@H](NC1=O)C(=O)N[C@@H](Cc1ccc(O)cc1)C(=O)N[C@@H](CCCNC(=N)N)C(=O)N[C@@H](CCCNC(=N)N)C(=O)N[C@H](C(=O)N[C@@H](CC(N)=O)C(=O)O)CSSC[C@H](NC(=O)[C@H](Cc1ccc(O)cc1)NC(=O)CN)C(=O)N[C@@H](Cc1ccccc1)C(=O)N[C@@H]([C@@H](C)O)C(=O)N[C@@H](C)C(=O)N2 [Ap5] (H-GYCFTACYLRNGARICYRRCN-OH; disulfide 3-20, 7-16)
- RP-HPLC Retention Time [1]: 25.53 min
- Minimum inhibitory concentration (MIC): Gram-positive Geometric mean (Gram-positive bacteria): 5.04 µM (≈ 12.6 µg/mL)

Compound: CC(C)C[C@@H]1NC(=O)[C@H](Cc2ccc(O)cc2)NC(=O)[C@@H]2CSSC[C@H](NC(=O)[C@H](CCCNC(=N)N)NC(=O)[C@H](CCCNC(=N)N)NC(=O)[C@H](C(C)C)NC(=O)CNC(=O)[C@H](CC(N)=O)NC(=O)[C@H](CCCNC(=N)N)NC1=O)C(=O)N[C@@H](Cc1ccc(O)cc1)C(=O)N[C@@H](CCCNC(=N)N)C(=O)N[C@@H](CCCNC(=N)N)C(=O)N[C@H](C(=O)N[C@@H](CC(N)=O)C(=O)O)CSSC[C@H](NC(=O)[C@H](Cc1ccc(O)cc1)NC(=O)CN)C(=O)N[C@@H](Cc1ccccc1)C(=O)N[C@@H]([C@@H](C)O)C(=O)N[C@@H](C)C(=O)N2 [Ap8] (H-GYCFTACYLRNGVRRCYRRCN-OH; disulfide 3-20, 7-16)
- RP-HPLC Retention Time [1]: 24.34 min
- Minimum inhibitory concentration (MIC): Gram-positive Geometric mean (Gram-positive bacteria): 16 µM (≈ 41.1 µg/mL)

Compound: CC[C@H](C)[C@@H]1NC(=O)[C@H](CCCNC(=N)N)NC(=O)[C@H](C(C)C)NC(=O)CNC(=O)[C@H](CC(N)=O)NC(=O)[C@H](CCCNC(=N)N)NC(=O)[C@H](CC(C)C)NC(=O)[C@H](CCCNC(=N)N)NC(=O)[C@@H]2CSSC[C@H](NC1=O)C(=O)N[C@@H](Cc1ccc(O)cc1)C(=O)N[C@@H](CCCNC(=N)N)C(=O)N[C@@H](CCCNC(=N)N)C(=O)N[C@H](C(=O)N[C@@H](CC(N)=O)C(=O)O)CSSC[C@H](NC(=O)[C@H](Cc1ccc(O)cc1)NC(=O)CN)C(=O)N[C@@H](Cc1ccccc1)C(=O)N[C@@H]([C@@H](C)O)C(=O)N[C@@H](C)C(=O)N2 [Ap2] (H-GYCFTACRLRNGVRICYRRCN-OH; disulfide 3-20, 7-16)
- RP-HPLC Retention Time [1]: 24.29 min
- Minimum inhibitory concentration (MIC): Gram-positive Geometric mean (Gram-positive bacteria): 12.7 µM (≈ 32 µg/mL)

Compound: CC[C@H](C)[C@@H]1NC(=O)[C@H](CCCNC(=N)N)NC(=O)[C@H](C(C)C)NC(=O)CNC(=O)[C@H](CC(N)=O)NC(=O)[C@H](CCCNC(=N)N)NC(=O)[C@H](CC(C)C)NC(=O)[C@H](C)NC(=O)[C@@H]2CSSC[C@H](NC1=O)C(=O)N[C@@H](Cc1ccc(O)cc1)C(=O)N[C@@H](CCCNC(=N)N)C(=O)N[C@@H](CCCNC(=N)N)C(=O)N[C@H](C(=O)N[C@@H](CC(N)=O)C(=O)O)CSSC[C@H](NC(=O)[C@H](Cc1ccc(O)cc1)NC(=O)CN)C(=O)N[C@@H](Cc1ccccc1)C(=O)N[C@@H]([C@@H](C)O)C(=O)N[C@@H](C)C(=O)N2 [Ap1] (H-GYCFTACALRNGVRICYRRCN-OH; disulfide 3-20, 7-16)
- RP-HPLC Retention Time [1]: 26.05 min
- Minimum inhibitory concentration (MIC): Gram-positive Geometric mean (Gram-positive bacteria): 10.08 µM (≈ 24.6 µg/mL)

Compound: CC(C)C[C@@H]1NC(=O)[C@H](Cc2ccc(O)cc2)NC(=O)[C@@H]2CSSC[C@H](NC(=O)[C@H](C)NC(=O)[C@H](CCCNC(=N)N)NC(=O)[C@H](C(C)C)NC(=O)CNC(=O)[C@H](CC(N)=O)NC(=O)[C@H](CCCNC(=N)N)NC1=O)C(=O)N[C@@H](Cc1ccc(O)cc1)C(=O)N[C@@H](CCCNC(=N)N)C(=O)N[C@@H](CCCNC(=N)N)C(=O)N[C@H](C(=O)N[C@@H](CC(N)=O)C(=O)O)CSSC[C@H](NC(=O)[C@H](Cc1ccc(O)cc1)NC(=O)CN)C(=O)N[C@@H](Cc1ccccc1)C(=O)N[C@@H]([C@@H](C)O)C(=O)N[C@@H](C)C(=O)N2 [Ap7] (H-GYCFTACYLRNGVRACYRRCN-OH; disulfide 3-20, 7-16)
- RP-HPLC Retention Time [1]: 25.61 min
- Minimum inhibitory concentration (MIC): Gram-positive Geometric mean (Gram-positive bacteria): 8 µM (≈ 19.9 µg/mL)

Compound: CC[C@H](C)[C@@H]1NC(=O)[C@H](CCCNC(=N)N)NC(=O)[C@H](C)NC(=O)CNC(=O)[C@H](CC(N)=O)NC(=O)[C@H](CCCNC(=N)N)NC(=O)[C@H](CCCNC(=N)N)NC(=O)[C@H](Cc2ccc(O)cc2)NC(=O)[C@@H]2CSSC[C@H](NC1=O)C(=O)N[C@@H](Cc1ccc(O)cc1)C(=O)N[C@@H](CCCNC(=N)N)C(=O)N[C@@H](CCCNC(=N)N)C(=O)N[C@H](C(=O)N[C@@H](CC(N)=O)C(=O)O)CSSC[C@H](NC(=O)[C@H](Cc1ccc(O)cc1)NC(=O)CN)C(=O)N[C@@H](Cc1ccccc1)C(=O)N[C@@H]([C@@H](C)O)C(=O)N[C@@H](C)C(=O)N2 [Ap10] (H-GYCFTACYRRNGARICYRRCN-OH; disulfide 3-20, 7-16)
- RP-HPLC Retention Time [1]: 24.41 min
- Minimum inhibitory concentration (MIC): Gram-positive Geometric mean (Gram-positive bacteria): 2.52 µM (≈ 6.41 µg/mL)
- Minimum inhibitory concentration (MIC): Gram-negative Geometric mean (Gram-negative bacteria): 0.31 µM (≈ 0.788 µg/mL)

Compound: CC[C@H](C)[C@@H]1NC(=O)[C@H](CCCNC(=N)N)NC(=O)[C@H](CCCNC(=N)N)NC(=O)CNC(=O)[C@H](CC(N)=O)NC(=O)[C@H](CCCNC(=N)N)NC(=O)[C@H](CC(C)C)NC(=O)[C@H](Cc2ccc(O)cc2)NC(=O)[C@@H]2CSSC[C@H](NC1=O)C(=O)N[C@@H](Cc1ccc(O)cc1)C(=O)N[C@@H](CCCNC(=N)N)C(=O)N[C@@H](CCCNC(=N)N)C(=O)N[C@H](C(=O)N[C@@H](CC(N)=O)C(=O)O)CSSC[C@H](NC(=O)[C@H](Cc1ccc(O)cc1)NC(=O)CN)C(=O)N[C@@H](Cc1ccccc1)C(=O)N[C@@H]([C@@H](C)O)C(=O)N[C@@H](C)C(=O)N2 [Ap6] (H-GYCFTACYLRNGRRICYRRCN-OH; disulfide 3-20, 7-16)
- RP-HPLC Retention Time [1]: 24.69 min
- Minimum inhibitory concentration (MIC): Gram-positive Geometric mean (Gram-positive bacteria): 6.35 µM (≈ 16.4 µg/mL)

Source: publication PMC9410094 (Marine Drugs, 2022)
